Where a SMILES comes first, the peptide text is derived from it.
How the values were obtained:
control CHO-K1 cells = assay: [14C]cephalexin uptake by control CHO-K1 cells transfected with plasmid pRc/RSV; assay type: in vitro ADME, Chinese hamster; conditions: Gly-L-Pro coincubation
[1] = target: T1, influx peptide transporter (Homo sapiens, UniProt Q12864); conditions: Clone 9; 50 mM Gly-L-Pro
T1 sequence (Q12864 23-832 K115E/E734D/E739A): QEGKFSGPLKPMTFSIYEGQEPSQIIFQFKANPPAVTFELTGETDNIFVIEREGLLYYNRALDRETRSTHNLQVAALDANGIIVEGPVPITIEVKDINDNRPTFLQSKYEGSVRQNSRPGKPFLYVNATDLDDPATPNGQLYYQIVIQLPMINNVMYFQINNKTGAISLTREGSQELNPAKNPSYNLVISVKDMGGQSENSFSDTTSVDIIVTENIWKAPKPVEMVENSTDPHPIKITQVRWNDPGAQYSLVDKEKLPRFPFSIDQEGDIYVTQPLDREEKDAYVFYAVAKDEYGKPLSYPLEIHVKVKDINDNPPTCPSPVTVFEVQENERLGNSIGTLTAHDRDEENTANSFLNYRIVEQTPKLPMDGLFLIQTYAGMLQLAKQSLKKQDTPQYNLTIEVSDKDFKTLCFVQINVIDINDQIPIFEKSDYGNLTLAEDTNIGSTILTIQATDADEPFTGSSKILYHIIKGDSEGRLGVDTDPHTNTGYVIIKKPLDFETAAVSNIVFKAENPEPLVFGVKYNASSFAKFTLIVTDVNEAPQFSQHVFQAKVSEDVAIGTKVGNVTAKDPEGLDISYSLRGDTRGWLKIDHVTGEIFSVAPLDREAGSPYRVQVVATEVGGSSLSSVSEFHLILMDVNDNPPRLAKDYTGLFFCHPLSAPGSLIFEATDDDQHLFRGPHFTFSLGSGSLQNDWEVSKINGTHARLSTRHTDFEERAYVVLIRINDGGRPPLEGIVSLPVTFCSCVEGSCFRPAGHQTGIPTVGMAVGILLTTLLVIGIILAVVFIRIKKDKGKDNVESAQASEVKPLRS
Protocol: Chinese hamster ovary cells (CHO-K1, ATCC CCL 61) were transfected with plasmid pPSJ179 using a calcium precipitation protocol described in the Stratagene mammalian transfection kit (Stratagene Catalog #200285). […] The calcium precipitation protocol transfection method was carried out as follows. Subconfluent CHO-K1 cells (100 mm culture dish, 1-day post plating) were incubated for 20 minutes at 37° C. with 20 μg of a calcium-precipitated DNA sample. The DNA sample was either plasmid pPSJ179 or, as control, plasmid pRc/RSV. Subsequently, the cells were grown for 3 days in F12 medium containing 10% fetal bovine serum (Hyclone Laboratories Inc., Logan, Utah 84321). Afterwards, the medium was replaced with growth medium containing the selection agent, G-418 sulfate at 300 μg/ml (Gibco, Grand Island, N.Y.) and cells were grown in a 3% CO2 incubator at 37° C. for 13 days. Colonies which were selected for further study were grown for selected time periods in the selection medium at 37° C. in a 5% CO2 incubator. Transfectants were evaluated for expression of the influx peptide transporter using an enzyme linked immunosorbent assay (ELISA) and monoclonal antibody reactive with the influx peptide transporter.
The transfected CHO-K1 cells (~0.5 to 1×10^5 cells per well) were grown for 3 days in a Costar 24-well plate as described above. […]

## NCC(=O)N1CCC[C@H]1C(=O)O [Gly-L-Pro] (H-Gly-Pro-OH)
Control CHO-K1 cells
  inhibition of transport of 1 mM [14C]cephalexin: not inhibited
[1]
  inhibition of uptake of 1 mM cephalexin: inhibited

From patent US5710018A, “Mammalian influx peptide transporter” (Eli Lilly and Company, priority 1995, dated 1998)
